IC50 data for 24 compounds are collected here from patent publication US9676714B2, “Sulfonylindole derivatives and method for preparing the same” (Daewoong Pharmaceutical Co., Ltd., priority 2013, dated 2017).

SMILES strings stand for the structures. pIC50: −log10 of the molar value. Where a name gives a salt, the structure may show the parent alone.

The test concerns the target T1, proton pump (H+/K+-ATPase) (Sus scrofa, UniProt P19156).
T1 construct: Gastric vesicles were prepared from hog stomach via centrifugal separation; from tissue; host or cells: hog stomach (gastric vesicles, method of Rabon et al. 1988)
Briefly: Measurement of inhibitory effects on proton pump (H+/K+-ATPase) activities. It is filed as biochemical. The following applies: hog gastric vesicles, K+-specific H+/K+-ATPase activity, Tris-HCl buffer pH 7.4, 37° C. for 40 minutes, malachite green Pi readout. The method, then: 1) Preparation of Gastric Vesicles
Gastric vesicles were prepared from hog stomach via centrifugal separation (Edd C. Rabon et al., Preparation of Gastric H^+,K^+-ATPase, Methods in enzymology, vol. 157 Academic Press Inc., (1988), pp. 649-654). The protein contents of the thus prepared gastric vesicles were quantitated by Bicinchoninic Acid (BCA) kit.
2) Measurement of Inhibitory Effects on Proton Pump (H^+/K^+-ATPase) Activities
The inhibitory effects of the compounds of the present invention against proton pump activities were measured using a 96-well plate. In this assay, the K^+-specific H^+/K^+-ATPase activities were calculated based on the difference between the H^+/K^+-ATPase activity in the presence of K^+ and that in the absence of K. In the 96-well plate, 0.5% dimethyl sulfoxide (DMSO) in buffer was added to the negative and positive control groups, and the diluted compounds of the present invention were added to the test groups. All assays were performed in a reaction volume of 100 μl at room temperature. The reaction buffer solution (60 mmol/l Tris-HCl buffer, pH 7.4) including the hog gastric vesicles was added with DMSO and the compounds at various concentrations, and then further added with 10 μl of 10 mmol/1 adenosine triphosphate Tris buffer solution (60 mmol/l Tris-HCl buffer, pH 7.4) to initiate an enzyme reaction. […] The amount of monophosphate (Pi) in the reaction was measured at 570 nm using a micro plate reader (FLUOstar Omega, BMG LABTECH). The inhibition rates (%) were determined from the activity values of control groups and those of test compounds at various concentrations, and the […] of the test compounds were calculated based on the respective inhibition value (%) using the Logistic 4-parameter function of Sigmaplot 8.0 program.

T1 sequence (P19156 whole entry): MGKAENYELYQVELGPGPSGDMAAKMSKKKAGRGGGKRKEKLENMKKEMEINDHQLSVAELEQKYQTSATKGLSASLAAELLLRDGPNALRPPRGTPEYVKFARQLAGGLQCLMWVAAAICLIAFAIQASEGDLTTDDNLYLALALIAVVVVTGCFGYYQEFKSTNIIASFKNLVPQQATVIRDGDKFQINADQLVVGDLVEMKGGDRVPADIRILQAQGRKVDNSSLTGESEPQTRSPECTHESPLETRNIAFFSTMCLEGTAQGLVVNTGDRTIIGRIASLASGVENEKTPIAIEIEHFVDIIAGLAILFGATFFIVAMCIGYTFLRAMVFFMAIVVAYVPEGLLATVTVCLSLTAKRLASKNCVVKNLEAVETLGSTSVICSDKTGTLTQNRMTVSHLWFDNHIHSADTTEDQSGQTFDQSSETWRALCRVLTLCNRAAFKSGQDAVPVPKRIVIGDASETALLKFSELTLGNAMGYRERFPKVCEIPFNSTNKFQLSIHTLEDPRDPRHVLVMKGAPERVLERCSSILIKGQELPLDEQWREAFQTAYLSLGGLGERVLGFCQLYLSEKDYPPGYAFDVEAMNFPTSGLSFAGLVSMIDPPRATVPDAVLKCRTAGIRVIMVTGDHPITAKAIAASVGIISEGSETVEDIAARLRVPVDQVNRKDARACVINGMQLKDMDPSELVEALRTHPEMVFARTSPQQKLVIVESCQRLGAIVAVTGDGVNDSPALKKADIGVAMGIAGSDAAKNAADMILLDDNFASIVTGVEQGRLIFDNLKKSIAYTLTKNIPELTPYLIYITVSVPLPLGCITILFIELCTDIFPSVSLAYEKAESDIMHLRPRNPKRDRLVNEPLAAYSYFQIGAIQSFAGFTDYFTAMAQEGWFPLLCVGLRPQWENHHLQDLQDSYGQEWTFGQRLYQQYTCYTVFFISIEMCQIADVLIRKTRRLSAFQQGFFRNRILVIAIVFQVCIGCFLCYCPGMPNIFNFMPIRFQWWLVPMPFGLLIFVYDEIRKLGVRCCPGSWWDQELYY
T1 sequence (P18434 whole entry partner): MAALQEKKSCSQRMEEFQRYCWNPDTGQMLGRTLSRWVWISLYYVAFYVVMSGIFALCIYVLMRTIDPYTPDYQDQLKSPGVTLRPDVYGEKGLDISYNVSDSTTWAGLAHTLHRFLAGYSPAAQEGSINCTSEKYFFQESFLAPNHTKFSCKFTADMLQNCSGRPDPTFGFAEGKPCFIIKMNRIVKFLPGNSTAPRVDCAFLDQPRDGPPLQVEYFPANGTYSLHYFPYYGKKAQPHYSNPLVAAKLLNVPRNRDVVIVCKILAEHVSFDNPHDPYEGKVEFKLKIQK

For `CNCc1cn(S(=O)(=O)c2cccnc2)c2cc(Nc3cc(F)c(F)cc3C)ccc12` [Example 73, N-(4,5-difluoro-2-methylphenyl)-3-((methylamino)methyl)-1-(pyridin-3-ylsulfonyl)-1H-indol-6-amine hydrochloride], the pIC50 was 6.80. The compound `CNCc1cn(S(=O)(=O)c2cccnc2)c2cc(Nc3cc(F)c(F)cc3F)ccc12` [Example 74, 3-((methylamino)methyl)-1-(pyridin-3-ylsulfonyl)-N-(2,4,5-trifluorophenyl)-1H-indol-6-amine hydrochloride] showed a negative-log IC50 (pIC50) of 6.35. With `CNCc1cn(S(=O)(=O)c2cccnc2)c2cc(Nc3cc(C)c(Cl)cc3C)ccc12` [Example 75, N-(4-chloro-2,5-dimethylphenyl)-3-((methylamino)methyl)-1-(pyridin-3-ylsulfonyl)-1H-indol-6-amine hydrochloride], the negative-log IC50 (pIC50) was 6.54. `CNCc1cn(S(=O)(=O)c2cccnc2)c2cc(Nc3cc(Cl)c(Cl)cc3Cl)ccc12` [Example 76, 3-((methylamino)methyl)-1-(pyridin-3-ylsulfonyl)-N-(2,4,5-trichlorophenyl)-1H-indol-6-amine hydrochloride]: the negative-log IC50 (pIC50) was 6.46. For `CNCc1cn(S(=O)(=O)c2cccnc2)c2cc(Nc3cc(OC)c(Cl)cc3Cl)ccc12` [Example 77, N-(2,4-dichloro-5-methoxyphenyl)-3-((methylamino)methyl)-1-(pyridin-3-ylsulfonyl)-1H-indol-6-amine hydrochloride] the value was 6.46; for `CNCc1cn(S(=O)(=O)c2cccnc2)c2cc(Nc3cc(F)c(C(F)(F)F)cc3F)ccc12` [Example 78, N-(2,5-difluoro-4-(trifluoromethyl)phenyl)-3-((methylamino)methyl)-1-(pyridin-3-ylsulfonyl)-1H-indol-6-amine hydrochloride], 5.65; for `CNCc1cn(S(=O)(=O)c2cccnc2)c2cc(Nc3cc(F)c(Br)cc3F)ccc12` [Example 79, N-(4-bromo-2,5-difluorophenyl)-3-((methylamino)methyl)-1-(pyridin-3-ylsulfonyl)-1H-indol-6-amine hydrochloride], 5.86. For the compound `CNCc1cn(S(=O)(=O)c2cccnc2)c2cc(Nc3c(C)cc(C)cc3C)ccc12` [Example 80, N-mesityl-3-((methylamino)methyl)-1-(pyridin-3-ylsulfonyl)-1H-indol-6-amine hydrochloride], the pIC50 was 6.77. For `CNCc1cn(S(=O)(=O)c2cccnc2)c2cc(Nc3c(C)cc(F)cc3C)ccc12` [Example 81, N-(4-fluoro-2,6-dimethylphenyl)-3-((methylamino)methyl)-1-(pyridin-3-ylsulfonyl)-1H-indol-6-amine hydrochloride] the value was 6.51; for `CNCc1cn(S(=O)(=O)c2cccnc2)c2cc(Nc3c(F)cc(F)cc3F)ccc12` [Example 82, 3-((methylamino)methyl)-1-(pyridin-3-ylsulfonyl)-N-(2,4,6-trifluorophenyl)-1H-indol-6-amine hydrochloride], 6.35; for `CNCc1cn(S(=O)(=O)c2cccnc2)c2cc(Nc3c(F)cc(F)cc3Cl)ccc12` [Example 83, N-(2-chloro-4,6-difluorophenyl)-3-((methylamino)methyl)-1-(pyridin-3-ylsulfonyl)-1H-indol-6-amine hydrochloride], 5.99. `CNCc1cn(S(=O)(=O)c2cccnc2)c2cc(Nc3c(Cl)cc(F)cc3Cl)ccc12` [Example 84, N-(2,6-dichloro-4-fluorophenyl)-3-((methylamino)methyl)-1-(pyridin-3-ylsulfonyl)-1H-indol-6-amine hydrochloride] showed a pIC50 of 6.28. `CNCc1cn(S(=O)(=O)c2cccnc2)c2cc(Nc3c(C)cc(Cl)cc3C)ccc12` [Example 85, N-(4-chloro-2,6-dimethylphenyl)-3-((methylamino)methyl)-1-(pyridin-3-ylsulfonyl)-1H-indol-6-amine hydrochloride] gave a pIC50 of 6.43. `CNCc1cn(S(=O)(=O)c2cccnc2)c2cc(Nc3c(F)cc(Cl)cc3F)ccc12` [Example 86, N-(4-chloro-2,6-difluorophenyl)-3-((methylamino)methyl)-1-(pyridin-3-ylsulfonyl)-1H-indol-6-amine hydrochloride]: the negative-log IC50 (pIC50) was 6.19.

The compound `CNCc1cn(S(=O)(=O)c2cccnc2)c2cc(Nc3c(Cl)cc(Cl)cc3Cl)ccc12` [Example 87, 3-((methylamino)methyl)-1-(pyridin-3-ylsulfonyl)-N-(2,4,6-trichlorophenyl)-1H-indol-6-amine hydrochloride] gave a pIC50 of 6.40. For `CNCc1cn(S(=O)(=O)c2cccnc2)c2cc(Nc3c(F)cc(OC)cc3F)ccc12` [Example 88, N-(2,6-difluoro-4-methoxyphenyl)-3-((methylamino)methyl)-1-(pyridin-3-ylsulfonyl)-1H-indol-6-amine hydrochloride] the value was 6.37; for `CCOc1cc(F)c(Nc2ccc3c(CNC)cn(S(=O)(=O)c4cccnc4)c3c2)c(F)c1` [Example 89, N-(4-ethoxy-2,6-difluorophenyl)-3-((methylamino)methyl)-1-(pyridin-3-ylsulfonyl)-1H-indol-6-amine hydrochloride], 6.06; for `CNCc1cn(S(=O)(=O)c2cccnc2)c2cc(Nc3c(C)cc(Br)cc3C)ccc12` [Example 90, N-(4-bromo-2,6-dimethylphenyl)-3-((methylamino)methyl)-1-(pyridin-3-ylsulfonyl)-1H-indol-6-amine hydrochloride], 6.15. For `CNCc1cn(S(=O)(=O)c2cccnc2)c2cc(Nc3c(F)cc(F)cc3Br)ccc12` [Example 91, N-(2-bromo-4,6-difluorophenyl)-3-((methylamino)methyl)-1-(pyridin-3-ylsulfonyl)-1H-indol-6-amine hydrochloride] the value was 6.06; for `CNCc1cn(S(=O)(=O)c2cccnc2)c2cc(Nc3c(F)cc(Br)cc3F)ccc12` [Example 92, N-(4-bromo-2,6-difluorophenyl)-3-((methylamino)methyl)-1-(pyridin-3-ylsulfonyl)-1H-indol-6-amine hydrochloride], 5.82; for `CNCc1cn(S(=O)(=O)c2cccnc2)c2cc(Nc3c(F)cc(Br)cc3Br)ccc12` [Example 93, N-(2,4-dibromo-6-fluorophenyl)-3-((methylamino)methyl)-1-(pyridin-3-ylsulfonyl)-1H-indol-6-amine hydrochloride], 5.65. The same measure for `CNCc1cn(S(=O)(=O)c2cccnc2)c2cc(Nc3c(C)cc(Cl)cc3[N+](=O)[O-])ccc12` [Example 94, N-(4-chloro-2-methyl-6-nitrophenyl)-3-((methylamino)methyl)-1-(pyridin-3-ylsulfonyl)-1H-indol-6-amine hydrochloride]: 6.11; for `CNCc1cn(S(=O)(=O)c2cccnc2)c2cc(Nc3c(F)c(F)cc(F)c3F)ccc12` [Example 95, 3-((methylamino)methyl)-1-(pyridin-3-ylsulfonyl)-N-(2,3,5,6-tetrafluorophenyl)-1H-indol-6-amine hydrochloride]: 6.32; for `CNCc1cn(S(=O)(=O)c2cccnc2)c2cc(Nc3c(F)c(F)c(C(F)(F)F)c(F)c3F)ccc12` [Example 96, 3-((methylamino)methyl)-1-(pyridin-3-ylsulfonyl)-N-(2,3,5,6-tetrafluoro-4-(trifluoromethyl)phenyl)-1H-indol-6-amine hydrochloride]: 5.76.
